{Chol} = cholesterol
What was measured:
Experiment in all cases: Cell viability assay (ATP quantitation)
[1] = tested on: Sk-Mel-28 melanoma cell line; format: cell-based, human; conditions: 50 nM, 5 days (120 hrs), vs non-targeting control
Experimental: (§1) EsiRNA, siRNA and ASO GapmeRs were transfected in a final concentration of 50 nM unless mentioned otherwise and the transfection reagent Lipofectamine 3000 (2 ul/ml) was added according to the manufacturer's instructions.
(§2) Dependent on cell doubling time, 0.7-2×10^^3 cells were seeded in 96 well plates. 1 day after seeding cells were incubated in media with oligonucleotide concentration and/or MEKi and transfection reagent. 3 (synergy experiments) or 5 (solely ASO) days after transfection Total luminescence was measured on the SynergyHT plate reader (BioTek) using Gen5 software.

[2] = tested on: AV5 primary melanoma cell line; format: cell-based, human; conditions: 50 nM, 5 days (120 hrs), vs non-targeting control
Experimental: as §1, §2

D04 melanoma cell line = format: cell-based, human; conditions: 50 nM, 5 days (120 hrs), vs non-targeting control
Experimental: as §1, §2

MM415 melanoma cell line = format: cell-based, human; conditions: 50 nM, 5 days (120 hrs), vs non-targeting control
Experimental: as §1, §2

[3] = tested on: Sk-Mel-2 melanoma cell line; format: cell-based, human; conditions: 50 nM, 5 days (120 hrs), vs non-targeting control
Experimental: as §1, §2

[4] = tested on: WM3629 melanoma cell line; format: cell-based, human; conditions: 50 nM, 5 days (120 hrs), vs non-targeting control
Experimental: as §1, §2

[5] = tested on: sarcoma cell line SK-LMS-1; format: cell-based; conditions: SK-LMS-1 sarcoma; 50 nM, 120 hrs; Lipofectamine3000 2 ul/ml; vs non-targeting control ASO
Experimental: as §1, §2
(§3) Cell viability was compared to treatment with non-targeting control ASO-treatment. Lipofectamine3000 concentration was 2 ul/ml.

[6] = tested on: hepatocellular carcinoma cell line HepG2; format: cell-based; conditions: 50 nM, 120 hrs, Lipofectamine3000 2 ul/ml, vs non-targeting control ASO
Experimental: as §1, §2, §3

[7] = tested on: Hs852.T primary melanoma cell line; format: cell-based, human; conditions: 50 nM, 5 days (120 hrs), vs non-targeting control
Experimental: as §1, §2

VMM39 melanoma cell line = format: cell-based, human; conditions: 50 nM, 5 days (120 hrs), vs non-targeting control
Experimental: as §1, §2

[8] = tested on: WM3211 melanoma cell line; format: cell-based, human; conditions: 50 nM, 5 days (120 hrs), vs non-targeting control
Experimental: as §1, §2

[9] = tested on: WM1366 melanoma cell line; format: cell-based, human; conditions: 50 nM, 5 days (120 hrs), vs non-targeting control
Experimental: as §1, §2

[10] = tested on: Sk-N-AS Neuroblastoma cell line; format: cell-based; conditions: 50 nM, 5 days, vs non-targeting control
Experimental: as §1, §2

[11] = tested on: MaMel30 melanoma cell line; format: cell-based; conditions: 50 nM, 5 days, vs non-targeting control
Experimental: as §1, §2

Measured: cell viability decrease

CCCAGAAGCUAGAGGUAAAUU (antisense UUUACCUCUAGCUUCUGGGUU; listed as RNA, chemistry not given here) [SEQ ID NO: 23, siRNA targeting BX470102.3-008]
significant cell viability decrease: [1] | [2] | D04 melanoma cell line

GAGUAACAGAGGAGAACUUUU (antisense AAGUUCUCCUCUGUUACUCUU; siRNA; 5' phosphate on antisense strand, other chemistry not given here) [SEQ ID NO: 25, siRNA targeting both isoforms of AC004540.4]
significant cell viability decrease: [2]

UGGAUAAUGAUAAGGUCUAUU (antisense UAGACCUUAUCAUUAUCCAUU; listed as RNA, chemistry not given here) [SEQ ID NO: 39, siRNA targeting AL157871.4-201]
significant cell viability decrease: D04 melanoma cell line

AGCAAUGACUCCUGAACAUUU (antisense AUGUUCAGGAGUCAUUGCUUU; siRNA; 5' phosphate on antisense strand, other chemistry not given here) [SEQ ID NO: 27, siRNA targeting RP11-7011.3]
significant cell viability decrease: [1] | [2] | D04 melanoma cell line

5′-AUUUCAUGUCUGAAGCAAUUCUACT-3′ (chain 2 AAUAAAGUACAGACUUCGUUAAGAUGA; chemistry not given here; one strand is listed 3' to 5') [SEQ ID NO: 44]
significant cell viability decrease: MM415 melanoma cell line | [3] | [4] | D04 melanoma cell line

GACTGGAGATAATTAA-Cholesterol (3' {Chol}, sugars by position and backbone not given here; GapmeR, chemically modified) [SEQ ID NO:47, TRASH targeting ASO with additional Cholesterol modification]
significant cell viability decrease: [5] | [6] | MM415 melanoma cell line | D04 melanoma cell line

5′-GCCAACAGCAUGUCAAUUCAGUGAT-3′ (chain 2 GACGGUUGUCGUACAGUUAAGUCACUA; chemistry not given here; one strand is listed 3' to 5') [SEQ ID NO: 43]
significant cell viability decrease: [3] | [4] | D04 melanoma cell line

AGATGGCTCTGTAAGA (QIAGEN GapmeR, modification pattern not given here) [SEQ ID NO: 49, Antisense oligonucleotide targeting SNX10]
significant cell viability decrease: D04 melanoma cell line

CTCATGAGCTGTCGTA (QIAGEN GapmeR, modification pattern not given here) [SEQ ID NO: 41, Antisense oligonucleotide targeting AC004540.4-001 and AC004540.4-002]
not listed: [10] | [11]
significant cell viability decrease: all other assays above

ATTGATGAAAGGTGAA (QIAGEN GapmeR, modification pattern not given here) [SEQ ID NO: 19, Antisense oligonucleotide targeting ARF-AS1-201, ARF-AS1-202 and ARF-AS1-203]
significant cell viability decrease: [10] | [11] | [1] | MM415 melanoma cell line | [3] | D04 melanoma cell line

AAGTCCTTGGTTGATG (QIAGEN GapmeR, modification pattern not given here) [SEQ ID NO: 21, Antisense oligonucleotide targeting AL157871.4-201]
significant cell viability decrease: [10] | [1] | MM415 melanoma cell line | [3] | D04 melanoma cell line

GTAAGTAGGAGCTGTG (QIAGEN GapmeR, modification pattern not given here) [SEQ ID NO: 22, Antisense oligonucleotide targeting AL157871.4-201]
significant cell viability decrease: [10] | [11] | [1] | MM415 melanoma cell line | [3] | D04 melanoma cell line

5′-UCACAAAGAGAGACAGGAAUU-3′ (chain 2 UUCCUGUCUCUCUUUGUGAUU; listed as RNA, chemistry not given here) [SEQ ID NO:46]
significant cell viability decrease: MM415 melanoma cell line | D04 melanoma cell line

5′-GGUAAAAACAUGAAGCUAAUAGUUA-3′ (chain 2 ACCCAUUUUUGUACUUCGAUUAUCAAU; listed as RNA, chemistry not given here; one strand is listed 3' to 5') [SEQ ID NO: 42]
significant cell viability decrease: MM415 melanoma cell line | [3] | D04 melanoma cell line

GGAAAGGCGAGCUGAGCAUUU (antisense AUGCUCAGCUCGCCUUUCCUU; listed as RNA, chemistry not given here) [SEQ ID NO: 37, siRNA targeting ARF-AS1 isoform 1]
significant cell viability decrease: D04 melanoma cell line

GCGTCAACTAAAGCAA (QIAGEN GapmeR, modification pattern not given here) [SEQ ID NO: 20, Antisense oligonucleotide targeting ARF-AS1-202 and ARF-AS1-203]
significant cell viability decrease: [10] | [1] | MM415 melanoma cell line | [3] | D04 melanoma cell line

— patent publication US20250197864A1, “LNCRNA TRANSCRIPTS IN MELANOMAGENESIS” (The Regents of the University of California, priority 2021, published 2025)
